Data published in the supplement of paper PMC11061612.

Experiments:
Assay in all cases: combination Emax (second highest fraction inhibited in the dose matrix, 72 h); higher = more inhibition; extreme values may be limits of the assay
[1] = system: 22RV1 (Prostate Carcinoma)
Summary of the method: (§1)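 Cell lines in DMEM/F12 or RPMI with 10% FBS were plated in 1536-well plates, held 24 hours at 37°C, 5% CO2, then given two-drug dose matrices for 72 hours (DMSO typically 0.2%). Viability was read by CellTiter-Glo 2.0 luminescence and scaled as inhibition from 0 (vehicle wells) to 1 (blank wells). Combination Emax is the second-highest inhibition in the matrix; Bliss excess is observed combination effect minus expected EA + EB − EA·EB, EA and EB being single-agent effects.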

5637 (Bladder Carcinoma) = system: 5637 (Bladder Carcinoma)
Summary of the method: as §1

A101D (Melanoma) = system: A101D (Melanoma)
Summary of the method: as §1

[2] = system: CESS (Acute Myeloid Leukemia)
Summary of the method: as §1

[3] = system: DMS-53 (Small Cell Lung Carcinoma)
Summary of the method: as §1

[4] = system: EPLC-272H (Other Solid Carcinomas)
Summary of the method: as §1

[5] = system: ESO26 (Esophageal Adenocarcinoma)
Summary of the method: as §1

EW-7 (Ewing's Sarcoma) = system: EW-7 (Ewing's Sarcoma)
Summary of the method: as §1

[6] = system: HCC1428 (Breast Carcinoma)
Summary of the method: as §1

[7] = system: HT55 (Colorectal Carcinoma)
Summary of the method: as §1

[8] = system: JIMT-1 (Breast Carcinoma)
Summary of the method: as §1

[9] = system: Jurkat (T-Lymphoblastic Leukemia)
Summary of the method: as §1

KP-N-YN (Neuroblastoma) = system: KP-N-YN (Neuroblastoma)
Summary of the method: as §1

[10] = system: MDA-MB-436 (Breast Carcinoma)
Summary of the method: as §1

[11] = system: MHH-ES-1 (Ewing's Sarcoma)
Summary of the method: as §1

[12] = system: NCI-H1703 (Squamous Cell Lung Carcinoma)
Summary of the method: as §1

[13] = system: NCI-H441 (Lung Adenocarcinoma)
Summary of the method: as §1

PEO1 (Ovarian Carcinoma) = system: PEO1 (Ovarian Carcinoma)
Summary of the method: as §1

[14] = system: SK-HEP-1 (Hepatocellular Carcinoma)
Summary of the method: as §1

[15] = system: huH-1 (Hepatocellular Carcinoma)
Summary of the method: as §1

SMILES	combination Emax [1]	combination Emax (5637 (Bladder Carcinoma))	combination Emax (A101D (Melanoma))	combination Emax [2]	combination Emax [3]	combination Emax [4]	combination Emax [5]	combination Emax (EW-7 (Ewing's Sarcoma))	combination Emax [6]	combination Emax [7]	combination Emax [8]	combination Emax [9]	combination Emax (KP-N-YN (Neuroblastoma))	combination Emax [10]	combination Emax [11]	combination Emax [12]	combination Emax [13]	combination Emax (PEO1 (Ovarian Carcinoma))	combination Emax [14]	combination Emax [15]
COc1cccc2c1C(=O)c1c(O)c3c(c(O)c1C2=O)C[C@@](O)(C(=O)CO)C[C@@H]3O[C@H]1C[C@H](N)[C@H](O)[C@H](C)O1 [Doxorubicin] + Cc1cc2ncnn2cc1Nc1ncc2c(n1)n(C1CCOCC1)c(=O)n2C [AZD7648] (first compound max 1 µM, 7x7, partner max 10 µM)	0.805	0.546	0.897	0.949	0.455	0.539	0.801	0.889	0.168	0.678	0.697	0.972	0.698	0.504	0.916	0.932	0.452	0.419	0.872	0.55
CN(C)CCCOc1ccc(-c2ccc3ncc4c(c3c2)n(C2CCOCC2)c(=O)n4C)cn1 [AZD0156] + CCN(CCO)CCCOc1ccc2c(Nc3cc(CC(=O)Nc4cccc(F)c4)[nH]n3)ncnc2c1 [AZD2811] (first compound max 1 µM, 7x7, partner max 1 µM)	0.267	0.609	0.203	0.25	0.0911	0.415	0.0581	0.403	0.161	0.16	0.0631	0.309	0.486	0.0531	0.55	0.506	0.112	0.157	0.255	0.317
COc1nnc2ccc(N3CCC(c4ccc(OCCN5CCN(C)C(=O)[C@H]5C)cc4)CC3)nn12 [AZD5153] + C[C@@H]1COCCN1C2=NC(=NC(=C2)C3(CC3)[S@](=N)(=O)C)C4=C5C=CNC5=NC=C4 [AZD6738] (first compound max 1 µM, 7x7, partner max 10 µM)	0.645	0.823	0.805	0.905	0.58	0.919	0.84	0.961	0.732	0.748	0.77	0.985	0.955	0.332	0.812	0.973	0.562	0.748	0.406	0.69
COc1cccc(OCCCN)c1-c1cc(Nc2cnc(C#N)cn2)n[nH]1 [Prexasertib] + CN(C)CCCOc1ccc(-c2ccc3ncc4c(c3c2)n(C2CCOCC2)c(=O)n4C)cn1 [AZD0156] (first compound max 1 µM, 7x7, partner max 1 µM)	0.532	0.849	0.737	0.975	0.275	0.924	0.571	0.981	0.408	0.614	0.869	0.992	0.999	0.41	0.722	0.966	0.513	0.388	0.379	0.756
CC1(C)CCC(CN2CCN(c3ccc(C(=O)NS(=O)(=O)c4ccc(NCC5CCOCC5)c([N+](=O)[O-])c4)c(Oc4cnc5[nH]ccc5c4)c3)CC2)=C(c2ccc(Cl)cc2)C1 [Venetoclax] + C1CN(CCC1(C(=O)N[C@@H](CCO)C2=CC=C(C=C2)Cl)N)C3=NC=NC4=C3C=CN4 [Capivasertib] (first compound max 1 µM, 7x7, partner max 3 µM)	0.484	0.168	0.283	0.467	0.361	0.562	0.311	0.962	0.119	0.363	0.188	0.639	0.573	0.163	0.323	0.384	0.326	0.19	0.168	0.2
Cc1c2c(nn1C)CSCc1cc(n(C)n1)CSc1cc(c3ccccc3c1)OCCCc1c(C(=O)O)n(C)c3c-2c(Cl)ccc13 [AZD5991] + C[C@@H]1COCCN1C2=NC(=NC(=C2)C3(CC3)[S@](=N)(=O)C)C4=C5C=CNC5=NC=C4 [AZD6738] (first compound max 1 µM, 7x7, partner max 10 µM)	0.71	0.787	1	0.958	0.616	0.993	0.544	0.998	0.974	0.503	0.723	0.974	0.968	0.334	0.837	0.961	0.39	0.522	0.354	0.623
Cc1c2c(nn1C)CSCc1cc(n(C)n1)CSc1cc(c3ccccc3c1)OCCCc1c(C(=O)O)n(C)c3c-2c(Cl)ccc13 [AZD5991] + C1CN(CCC1(C(=O)N[C@@H](CCO)C2=CC=C(C=C2)Cl)N)C3=NC=NC4=C3C=CN4 [Capivasertib] (first compound max 1 µM, 7x7, partner max 3 µM)	0.706	0.174	1	0.566	0.442	0.932	0.405	0.725	0.977	0.269	0.21	1	0.256	0.201	0.591	0.847	0.237	0.207	0.334	0.227
CC(=O)c1c(C)c2cnc(Nc3ccc(N4CCNCC4)cn3)nc2n(C2CCCC2)c1=O [Palbociclib] + Cn1cnc2c(F)c(Nc3ccc(Br)cc3Cl)c(C(=O)NOCCO)cc21 [Selumetinib] (first compound max 10 µM, 7x7, partner max 10 µM)	0.463	0.345	0.588	0.658	0.212	0.7	0.299	0.669	0.165	0.755	0.0628	0.386	0.318	0.224	0.352	0.584	0.327	0.295	0.372	0.167
CC(=O)c1c(C)c2cnc(Nc3ccc(N4CCNCC4)cn3)nc2n(C2CCCC2)c1=O [Palbociclib] + Cc1c2c(nn1C)CSCc1cc(n(C)n1)CSc1cc(c3ccccc3c1)OCCCc1c(C(=O)O)n(C)c3c-2c(Cl)ccc13 [AZD5991] (first compound max 10 µM, 7x7, partner max 1 µM)	0.503	0.197	0.588	0.669	0.263	0.822	0.63	0.494	0.952	0.506	0.179	0.883	0.387	0.229	0.622	0.815	0.302	0.329	0.848	0.236
Cc1c2c(nn1C)CSCc1cc(n(C)n1)CSc1cc(c3ccccc3c1)OCCCc1c(C(=O)O)n(C)c3c-2c(Cl)ccc13 [AZD5991] + C[C@@H](Nc1cc(F)cc(F)c1)c1cc(C(=O)N(C)C)cc2c(=O)cc(N3CCOCC3)oc12 [AZD8186] (first compound max 1 µM, 7x7, partner max 3 µM)	0.48	0.25	0.952	0.554	0.398	0.916	0.284	0.3	0.964	0.272	0.304	0.913	0.171	0.358	0.665	0.87	0.34	0.257	0.356	0.192
CCc1c2c(nc3ccc(O)cc13)-c1cc3c(c(=O)n1C2)COC(=O)[C@]3(O)CC [SN-38] + CN(C)CCCOc1ccc(-c2ccc3ncc4c(c3c2)n(C2CCOCC2)c(=O)n4C)cn1 [AZD0156] (first compound max 0.3 µM, 7x7, partner max 1 µM)	0.683	0.802	0.674	0.984	0.729	0.755	0.655	0.975	0.123	0.449	0.266	0.999	0.806	0.572	1	0.875	0.614	0.674	0.63	0.762
Cc1c2c(nn1C)CSCc1cc(n(C)n1)CSc1cc(c3ccccc3c1)OCCCc1c(C(=O)O)n(C)c3c-2c(Cl)ccc13 [AZD5991] + CN(C)CCCOc1ccc(-c2ccc3ncc4c(c3c2)n(C2CCOCC2)c(=O)n4C)cn1 [AZD0156] (first compound max 1 µM, 7x7, partner max 1 µM)	0.476	0.216	1	0.233	0.716	0.936	0.269	0.376	0.961	0.276	0.225	0.928	0.252	0.167	0.652	0.892	0.246	0.15	0.281	0.24
Cc1c2c(nn1C)CSCc1cc(n(C)n1)CSc1cc(c3ccccc3c1)OCCCc1c(C(=O)O)n(C)c3c-2c(Cl)ccc13 [AZD5991] + C=CCn1c(=O)c2cnc(Nc3ccc(N4CCN(C)CC4)cc3)nc2n1-c1cccc(C(C)(C)O)n1 [AZD1775] (first compound max 1 µM, partner max 1 µM)	0.453	0.954	1	0.967	0.684	0.971	0.683	0.919	0.97	0.715	0.763	0.972	0.912	0.289	0.87	0.954	0.471	0.397	0.35	0.552
